Measured values taken from patent US20200289482A1, “CYSTIC FIBROSIS TRANSMEMBRANE CONDUCTANCE REGULATOR MODULATORS FOR TREATING AUTOSOMAL DOMINANT POLYCYSTIC KIDNEY DISEASE” (The Johns Hopkins University, priority 2017, published 2020).

Assays:
NHE3 [1] = assay: NHE3 expression in PN cells; assay type: cell-based, mouse; conditions: PN cells treated with VX-809 vs PN cells
Experimental: FIG. 14A and FIG. 14B show NHE3 expression in PN cells treated with VX-809.
(§1) The expression and activity of […] were evaluated. Specifically, NHE3 expression was evaluated in PN cells that were treated with VX-809. […] was also studied in PN, PH, and PN cells treated with VX-809. […] Next, NHE3 activity was evaluated in PN/PH cells or PN cells treated with VX-809. NHE3 activity was increased in PN cells treated with VX-809, as compared to PN cells (FIG. 16A). NHE3 activity was higher in control PH cells than in PN cells (FIG. 16B). […] NHE3 activity was increased in both VX-809 treated PN cells and control PH cells, as compared to control PN cells (FIG. 16C).

NHE3 [2] = assay: NHE3 activity in PN cells; assay type: cell-based, mouse; conditions: PN cells treated with VX-809 vs PN cells
Experimental: FIG. 15A and FIG. 15B show NHE3 activity in PN and PH cells (FIG. 15A and FIG. 15B) and NHE3 activity in PN cells treated with VX-809.
FIG. 16A, FIG. 16B, and FIG. 16C show NHE activity in PN/PH cells or PN cells treated with VX-809;
as §1

lumacaftor [VX-809]
NHE3 expression (NHE3 [1]): significantly increased | NHE3 activity (NHE3 [2]): significantly increased
